From patent US20250223303A1, “TRICYCLIC BORONIC ACID DERIVATIVE, AND PREPARATION METHOD THEREFOR AND APPLICATION THEREOF” (priority 2021, published 2025) come the findings set out here.

The test system of assay [1] is Escherichia coli ARLG 2829. As to the kind of experiment: MIC test of compounds in combination with antibiotics, Escherichia coli ARLG 2829. The settings on record: Escherichia coli ARLG-2829 NDM-5, OXA-1.
Assay [2] relates to Acinetobacter baumannii ARLG-1791 OXA-23. In words: MIC test of compounds in combination with antibiotics, Acinetobacter baumannii ARLG-1791. The settings on record: Acinetobacter baumannii ARLG-1791 OXA-23.
Experimental: 2-Fold gradient dilution of antibiotics: 300 μL of CAMHVIB medium was added to columns 2-12 of a 96-deep well plate. In column 1, 24 μL of antibiotic stock solution and 576 µL of CAMHB medium were added and mixed well, with a concentration of 512 μg/mL. 300 µL of antibiotic solution was transferred from the column 1 to the second column and mixed well. The process was repeated until column 11, and the column 12 was a blank control.
Dilution of combined compounds: the compound was diluted 400-fold to 32 μg/ml with CAMHB medium.
Working solution aliquoting: 25 μL of antibiotics was aliquoted into the 96-U bottom plate with a pipette, and 25 μL of combined compound was added to each well. If antibiotics were used alone, 25 μL of CAMHB medium was added.
Inoculum solution preparation: 5-6 single colonies were selected from the plate and suspended in normal saline. The bacterial suspension was adjusted to 0.2 (i.e., 0.5 McFarland turbidity, with a bacterial concentration was about 1 to 2×10^8 CFU/mL) with a turbidity meter. The bacterial suspension was diluted 100-fold with CAMHB medium for later use.
Inoculation: 50 μL of inoculum solution was transferred to the above 50 μL compound plate with a pipette.
Culture: The 96-U bottom plate was placed in an incubator at 37° C. for 18 to 20 h.
For a further assay, the target named is T1, OXA-10 (Pseudomonas aeruginosa, UniProt P14489).
T1 construct: purchased GenScript Biotech Co., Ltd
T1 sequence (P14489 20-266): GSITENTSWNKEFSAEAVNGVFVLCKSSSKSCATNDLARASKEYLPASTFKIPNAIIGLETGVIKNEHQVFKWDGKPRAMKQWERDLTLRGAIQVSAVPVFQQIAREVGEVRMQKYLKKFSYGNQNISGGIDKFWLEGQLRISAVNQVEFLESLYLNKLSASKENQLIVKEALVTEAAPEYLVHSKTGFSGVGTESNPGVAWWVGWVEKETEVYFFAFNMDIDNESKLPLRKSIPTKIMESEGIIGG
As to the kind of experiment: Enzyme activity test (FC5 fluorescent substrate), OXA-10. The class given is biochemical. Conditions: enzyme 350 pM, substrate FC5 50 μM. The method, then:
(§1) Compound stock solution: the compound was prepared as a 50 mM DMSO stock solution. […] After aliquoting, the compound stock solutions were stored at −20° C.
(§2) Preparation and storage of antibiotic substrate stock solution: antibiotic fluorescent substrate FC5 was synthesized internally and prepared as a 2 mM stock solution, which was stored at −20° C. after aliquoting.
(§3) Storage of β-lactamases: each […] was synthesized by GenScript Biotech Co., Ltd., and stored at −80° C. after aliquoting to avoid repeated freezing and thawing.
(§4) Preparation of enzyme activity reaction buffer: SBL buffer: PBS pH 7.4, 0.01% (v/v) Triton X-100; MBL buffer: 50 Mm HEPES in PBS pH 7.2, 1 μM ZnSO4, 1 μg/mL BSA, 0.010% v/v Triton X-100
(§5) a) The compound to be tested and buffer were taken out and warmed to room temperature.
(§6) b) Each compound was diluted with DMSO and buffer to the initial experimental concentration (Table 2), and then the compound was diluted 3-fold for a total of 10 concentrations.
(§7) c) Diluted compounds were added to wells 1 to 20 of a 384-well black plate at 2 replicate wells per concentration, 5 μL per well. 5 µL of DMSO was added to wells 21 to 24.
(§8) d) Each enzyme was diluted to the experimental concentration (Table 2) in SBL and MBL buffers, and finally 35 μL/well was added, with a total of 22 wells. 35 μL buffer was added to wells 23 to 24. Wells 21 to well 22 served as the maximum test values (Max), while wells 23 to 24 were designated as the minimum test values (Min).
(§9) e) The 384-well plate was centrifuged quickly and incubated for 10 minutes at room temperature.
(§10) f) The antibiotic substrate FC5 was diluted in buffer to the experimental concentration of each enzyme (Table 2).
(§11) g) The incubated 384-well plate was taken out and FC-5 was added to wells […]. The 384-well plate was centrifuged rapidly and promptly transferred to a microplate reader for reading.
(§12) h) The fluorescence intensity was measured at 355 nm excitation light/460 nm emission light in the microplate reader, and the fluorescence intensity was measured every three minutes for a total of 10 measurements.
(§13) Initial velocity of enzyme reaction V: Subtract the background reading (Min wells) without enzyme from each fluorescence intensity reading, and then perform on a linear regression analysis on each compound concentration group. The slope is the initial velocity of enzyme reaction (V) at each compound concentration.
(§14) Dose-effect curve and IC50 calculation of compounds: The initial velocity of enzyme reaction under the effect of each concentration of compounds was subjected to nonlinear regression fitting. The IC50 (half-maximal inhibitory concentration) of each compound was calculated using the formula […] (Vi: the initial velocity of enzyme reaction at each compound concentration; V0: initial velocity of enzyme reaction without the compound (Max wells). The software used was Graphpad prism 8.

A further assay has as its target T2, OXA-48 (Klebsiella pneumoniae, UniProt Q6XEC0).
T2 construct: purchased GenScript Biotech Co., Ltd
As to the kind of experiment: Enzyme activity test (FC5 fluorescent substrate), OXA-48. It counts as biochemical. Conditions: enzyme 650 pM, substrate FC5 125 μM. The procedure: as §1, §2, §3, §4, §5, §6, §7, §8, §9, §10, §11, §12, §13, §14

In another assay the target is T3, VIM-1 (Pseudomonas aeruginosa, UniProt A0A0F7KYQ8).
T3 construct: purchased GenScript Biotech Co., Ltd
As to the kind of experiment: Enzyme activity test (FC5 fluorescent substrate), VIM-1. It counts as biochemical. Conditions: enzyme 70 pM, substrate FC5 10 μM. The procedure: as §1, §2, §3, §4, §5, §6, §7, §8, §9, §10, §11, §12, §13, §14

T2 sequence (Q6XEC0 23-265 limits assumed): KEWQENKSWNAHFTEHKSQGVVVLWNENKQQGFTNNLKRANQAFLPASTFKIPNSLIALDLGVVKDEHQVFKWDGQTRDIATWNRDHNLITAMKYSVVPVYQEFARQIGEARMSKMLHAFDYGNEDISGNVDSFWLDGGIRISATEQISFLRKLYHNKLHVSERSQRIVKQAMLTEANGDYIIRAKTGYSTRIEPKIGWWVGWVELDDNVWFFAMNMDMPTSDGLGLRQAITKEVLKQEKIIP

Take `NCCNC1CCC(CC(=O)N[C@H]2Cc3cccc(C(=O)O)c3OB2O)CC1` (stereo partly shown) [VNRX-5133, reference compound]: the MIC came out at 1 µg/mL in assay [1] (Cefepime + compound (8 μg/mL)), 1 µg/mL in assay [1] (Meropenem + compound (8 μg/mL)), 16 µg/mL in assay [2] (Cefepime + compound (8 μg/mL)) and 128 µg/mL in assay [2] (Meropenem + compound (8 μg/mL)). The IC50 came out at 463 nM on OXA-10, 343 nM against OXA-48 and 33 nM against VIM-1.
